ChEMBL document CHEMBL1149553, “Bicyclo[2.2.2]octanes: close structural mimics of the nuclear receptor-binding motif of steroid receptor coactivators” (Bioorg Med Chem Lett, 2007)

Molecular target: T1, Estrogen receptor (Homo sapiens, UniProt P03372)
T1 sequence (P03372 whole entry): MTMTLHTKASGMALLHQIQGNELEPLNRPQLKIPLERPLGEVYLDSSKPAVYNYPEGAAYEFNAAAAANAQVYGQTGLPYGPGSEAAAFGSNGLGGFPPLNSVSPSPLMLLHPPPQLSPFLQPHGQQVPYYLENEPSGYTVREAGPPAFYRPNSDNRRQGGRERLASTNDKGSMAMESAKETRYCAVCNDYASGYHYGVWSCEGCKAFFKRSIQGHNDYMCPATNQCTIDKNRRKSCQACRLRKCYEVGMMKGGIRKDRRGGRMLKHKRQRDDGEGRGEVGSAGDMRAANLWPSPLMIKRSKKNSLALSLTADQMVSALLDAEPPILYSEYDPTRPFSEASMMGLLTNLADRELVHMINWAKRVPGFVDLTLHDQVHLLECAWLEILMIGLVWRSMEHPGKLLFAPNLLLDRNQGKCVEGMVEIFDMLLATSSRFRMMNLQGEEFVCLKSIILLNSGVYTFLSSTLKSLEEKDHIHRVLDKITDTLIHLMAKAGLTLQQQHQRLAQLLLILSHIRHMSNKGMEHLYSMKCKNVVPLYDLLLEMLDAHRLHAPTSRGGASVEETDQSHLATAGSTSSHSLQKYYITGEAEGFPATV
Experiment: Displacement of iodoacetamide-fluorescein-labeled SRC3 from ERalpha by TR-FRET assay

SMILES | Ki
COC(=O)C(N)CC1(C)CC2CCC1CC2C(C)(C)CCNC(=O)CCC(C)C (stereo unspecified) | 32 µM
COC(=O)C(CC1(C)CC2CCC1CC2C(C)(C)CCNC(=O)CCC(C)C)NC(=O)OCc1ccccc1 (stereo unspecified) | 38 µM
CC[C@H](C)[C@H](NC(=O)[C@H](CCCCN)NC(=O)[C@H](Cc1c[nH]cn1)NC(=O)[C@H](CCCNC(=N)N)NC(=O)[C@H](CCC(=O)O)NC(=O)[C@@H](NC(=O)[C@@H](N)CC(C)C)[C@@H](C)O)C(=O)N[C@@H](CC(C)C)C(=O)N[C@@H](Cc1c[nH]cn1)C(=O)N[C@@H](CCCNC(=N)N)C(=O)N[C@@H](CC(C)C)C(=O)N[C@@H](CC(C)C)C(=O)N[C@@H](CCC(N)=O)C(=O)N[C@@H](CCC(=O)O)C(=O)NCC(=O)N[C@@H](CO)C(=O)N1CCC[C@H]1C(=O)N[C@@H](CO)C(=O)N[C@@H](CC(=O)O)C(=O)O | 0.19 µM
COC(=O)C(=CC1(C)CC2C=CC1CC2C(C)(C)CCNC(=O)CCC(C)C)C(=O)OC (stereo unspecified) | 7.9 µM
COC(=O)C(CC1(C)CC2CCC1CC2C(C)(C)CCNC(=O)CCC(C)C)C(=O)OC (stereo unspecified) | 7.1 µM
COC(=O)C(CC1(C)CC2CCC1CC2C(C)(C)CCNC(=O)CCC(C)C)C(=O)O (stereo unspecified) | 12 µM
